One series concerns anesthetized guinea-pig. Nature of the series: Cardiovascular effects in the anaesthetized guinea-pig. Particulars: guinea pig, 0.02 mg/kg i.v. over 1 min, 15 min after onset of last vehicle infusion. In kind it is in vivo. The procedure:
Female guinea-pigs were anesthetized with sodium pentobarbital (66 mg/kg i.p.) followed by a continuous i.v. infusion of 6 mg/h of sodium pentobarbital and prepared for measurements of the surface electrocardiogram (ECG), heart rate and mean arterial blood pressure (see De Clerck et al, Fundam. Clin. Pharm.; 2002; 16: 125-140). Compound (−)-17 was dissolved in 20% hydroxypropyl-cyclodextrin with NaOH, HCl and mannitol in pyrogen-free water and administered intravenously (0.5 ml/kg) in increasing doses (0.16, 0.32, 0.64, 1.25, 2.5 and 5 mg/kg) over a period of 5 min at 15-min intervals. Plasma concentrations of Compound (−)-17 were measured at the end of each infusion. Corresponding volumes of vehicle were administered according to the same protocol in a second group of animals.

For the next series, the target named is T1, Alpha1A (Homo sapiens, UniProt P35348).
T1 construct: expressed in transfected cells; host or cells: CHO (membrane fraction)
T1 sequence (P35348 1-466): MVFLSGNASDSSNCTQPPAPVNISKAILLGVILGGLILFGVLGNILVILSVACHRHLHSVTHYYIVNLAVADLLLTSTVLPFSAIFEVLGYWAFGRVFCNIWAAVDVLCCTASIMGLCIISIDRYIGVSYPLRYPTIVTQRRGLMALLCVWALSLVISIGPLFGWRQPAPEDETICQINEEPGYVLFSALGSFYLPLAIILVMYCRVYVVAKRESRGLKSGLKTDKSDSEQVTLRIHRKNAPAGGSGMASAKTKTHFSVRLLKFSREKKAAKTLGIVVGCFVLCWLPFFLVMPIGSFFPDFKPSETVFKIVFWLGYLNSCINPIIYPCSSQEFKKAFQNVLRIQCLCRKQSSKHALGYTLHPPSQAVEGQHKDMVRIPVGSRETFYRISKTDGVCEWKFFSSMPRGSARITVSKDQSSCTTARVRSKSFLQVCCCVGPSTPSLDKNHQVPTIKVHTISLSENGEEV
Nature of the series: Competitive radioligand binding, Alpha1A. Particulars: CHO membranes, 3H-prazosin 0.25 nM; read-out: pIC50 Alpha1A (converted). The protocol:
(§1) Competitive radioligand binding assays were used to determine the affinity of the test compounds for a particular receptor. Various concentrations of the non-labelled test compound were added to the incubation mixture with the membrane fraction, containing the receptor of interest, and a fixed low concentration (nM) of the radioligand. During the incubation the radioligand bound to the receptor, but this was inhibited by the non-labelled test compound in proportion to its binding affinity and concentration.
(§2) Cell lines were established that stably express the human variant of the receptor under investigation after transfection with the appropriate cDNA (Table 1). Transfected cells were grown under standard culture conditions, and membrane fractions were obtained upon centrifugation and homogenisation of the cells. Optimal membrane dilutions for binding studies were determined and aliquots were stored at −70° C. until use. In a 96-well plate format, the appropriate radioligand was added to the membrane preparation containing the receptor under investigation. Compound solutions were prepared in DMSO, and diluted 100-fold into the multiwell plate to a final test concentration of 10^−9 to 10^−5 M. After incubation with the test compound, the unbound radioligand was removed by filtration on G/F filters with a Filtermate 96. Microscint™ was added to the washed filter plates and the radioactivity bound to the receptor was measured by liquid scintillation counting in a TopCount (Packard). To measure the Non-Specific Binding (NSB), a high concentration of the non-radiolabeled ligand was added to wells containing the membrane fraction and the radioligand.
(§3) Using in house developed software, a best-fit curve was fitted by a minimum sum of squares method to the plot of % inhibition vs. concentration of the test compound. From this, the pIC50 value (inhibitory concentration causing 50% displacement of specific binding) was determined, as well as an estimate of the slope of the plot (Hill coefficient).

The target of the next series is T2, 5HT3A/B (Homo sapiens, UniProt O95264+P46098).
T2 construct: expressed in transfected cells; host or cells: HEK293 (membrane fraction)
T2 sequence (P46098 24-478): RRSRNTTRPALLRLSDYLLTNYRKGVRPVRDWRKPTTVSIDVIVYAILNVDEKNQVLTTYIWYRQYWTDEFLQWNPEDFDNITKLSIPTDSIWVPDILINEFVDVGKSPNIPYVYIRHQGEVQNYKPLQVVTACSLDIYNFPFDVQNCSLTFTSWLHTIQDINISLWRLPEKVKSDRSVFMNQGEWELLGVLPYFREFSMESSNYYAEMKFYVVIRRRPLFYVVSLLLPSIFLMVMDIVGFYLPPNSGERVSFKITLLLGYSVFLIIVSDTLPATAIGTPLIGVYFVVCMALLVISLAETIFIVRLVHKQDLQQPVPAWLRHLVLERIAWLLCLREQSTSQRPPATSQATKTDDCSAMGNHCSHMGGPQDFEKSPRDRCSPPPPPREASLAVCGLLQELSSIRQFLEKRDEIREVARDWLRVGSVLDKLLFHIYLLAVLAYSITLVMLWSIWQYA
T2 sequence (O95264 22-441): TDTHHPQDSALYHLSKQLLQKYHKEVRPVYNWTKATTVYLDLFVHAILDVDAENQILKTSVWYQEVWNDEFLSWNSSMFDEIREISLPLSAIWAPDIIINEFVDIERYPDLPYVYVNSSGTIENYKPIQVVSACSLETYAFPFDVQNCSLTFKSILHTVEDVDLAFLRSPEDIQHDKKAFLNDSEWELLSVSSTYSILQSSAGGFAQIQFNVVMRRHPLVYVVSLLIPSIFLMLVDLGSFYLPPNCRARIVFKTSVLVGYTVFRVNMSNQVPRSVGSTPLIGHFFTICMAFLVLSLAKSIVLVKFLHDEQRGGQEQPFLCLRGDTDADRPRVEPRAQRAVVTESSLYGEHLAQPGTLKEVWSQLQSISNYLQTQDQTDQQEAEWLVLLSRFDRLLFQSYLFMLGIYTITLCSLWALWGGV
Kind of series: Competitive radioligand binding, 5HT3A/B. Particulars: HEK293 membranes, 3H-GR65630 0.5 nM; read-out: pIC50 5HT3A/B (converted). The procedure: as §1, §2, §3

The next series concerns the target T3, 5HT1A (Homo sapiens, UniProt P08908).
T3 construct: expressed in transfected cells; host or cells: HEK293 (membrane fraction)
T3 sequence (P08908 1-422): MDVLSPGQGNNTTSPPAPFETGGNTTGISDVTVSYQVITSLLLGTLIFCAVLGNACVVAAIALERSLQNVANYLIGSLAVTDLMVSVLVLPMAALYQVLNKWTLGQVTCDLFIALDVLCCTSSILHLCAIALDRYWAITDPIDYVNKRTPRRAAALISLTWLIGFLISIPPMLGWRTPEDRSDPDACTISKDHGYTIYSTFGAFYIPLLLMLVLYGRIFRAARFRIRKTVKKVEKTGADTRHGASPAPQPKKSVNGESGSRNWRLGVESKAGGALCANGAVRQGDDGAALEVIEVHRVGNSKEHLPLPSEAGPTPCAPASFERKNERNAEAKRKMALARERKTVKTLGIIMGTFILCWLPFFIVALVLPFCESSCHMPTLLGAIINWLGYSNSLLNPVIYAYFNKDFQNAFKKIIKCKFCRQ
Nature of the series: Competitive radioligand binding, 5HT1A. Particulars: HEK293 membranes, 3H-8-OH-DPAT 0.5 nM; read-out: pIC50 5HT1A (converted). The procedure: as §1, §2, §3

The target of the next series is T4, D2L (Homo sapiens, UniProt P14416).
T4 construct: expressed in transfected cells; host or cells: CHO (membrane fraction)
Nature of the series: Competitive radioligand binding, D2L. Particulars: CHO membranes, 3H-spiperone 0.2 nM; read-out: pIC50 D2L (converted). The procedure:
as §1, §2, §3

T4 sequence (P14416 whole entry): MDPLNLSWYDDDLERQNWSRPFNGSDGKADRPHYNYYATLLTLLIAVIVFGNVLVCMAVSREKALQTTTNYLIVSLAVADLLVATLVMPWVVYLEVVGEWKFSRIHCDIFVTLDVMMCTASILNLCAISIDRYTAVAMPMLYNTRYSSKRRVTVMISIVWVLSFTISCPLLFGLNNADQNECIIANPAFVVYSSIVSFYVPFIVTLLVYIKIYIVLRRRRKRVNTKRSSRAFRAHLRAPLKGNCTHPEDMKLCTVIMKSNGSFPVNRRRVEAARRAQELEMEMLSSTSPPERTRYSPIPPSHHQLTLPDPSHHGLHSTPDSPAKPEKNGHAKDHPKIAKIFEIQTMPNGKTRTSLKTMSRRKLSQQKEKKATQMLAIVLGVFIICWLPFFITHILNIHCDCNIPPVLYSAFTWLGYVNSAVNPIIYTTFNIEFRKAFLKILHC

Consider `CN(CCOc1ccc(NS(C)(=O)=O)cc1)CCc1ccc(NS(C)(=O)=O)cc1` [dofetilide, reference compound], for which the heart rate entry in the series on anesthetized guinea-pig is “decreased”.
With `COc1cc(N)c(Cl)cc1C(=O)NC1CCN(CCCOc2ccc(F)cc2)CC1OC` (centres unmarked) [Cisapride, reference compound], the IC50 on Alpha1A is 407 nM; at 5HT3A/B it was 1150 nM; on 5HT1A, 1950 nM; at D2L it was 537 nM.

For the origin of these results see patent US9139523B2, “5-HT2B receptor antagonists” (Janssen Pharmaceutica, NV, priority 2010, dated 2015).
